For 25 compounds, TGI and GI50 results are on record in PubChem BioAssay (NCI).

What all share (assay): NCI tumour cell line growth inhibition, 48 h
Assay [1] concerns CCRF-CEM leukemia.
Assay [2] has as its system SF-539 CNS.
Assay [3] concerns RXF 393 renal.
The test system of assay [4] is SK-MEL-28 melanoma.
For assay [5], the system named is NCI-H23 lung.
Assay [6] has as its system COLO 205 colon.
Assay [7] deals with UACC-257 melanoma.
Assay [8] concerns ACHN renal.
Assay [9] deals with NCI-H226 lung.
The subject of assay [10] is UO-31 renal.
Assay [11] deals with PC-3 prostate.
Assay [12] relates to CAKI-1 renal.

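96-well plates; 48 h exposure; 5 concentrations. Endpoints by linear interpolation between flanking doses. Not reached: highest tested concentration assigned. GI50 = concentration required for 50% inhibition of growth. TGI: total growth inhibition.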 A value given as a limit tells only on which side of the number the result lay.

`CN1N=C2c3ccccc3CC[C@H]2C1c1ccccc1` (stereo not given in full): the TGI in assay [1] is greater than 100 µM; in [2], greater than 100 µM; in assay [3], 81.5 µM; in assay [4], greater than 100 µM; in assay [5], greater than 100 µM; in assay [6], greater than 100 µM. The TGI in assay [7] is 70.3 µM; in assay [8], greater than 100 µM; in [9], greater than 100 µM; in assay [10] it was greater than 100 µM.
For the compound `O=C1CC(Br)c2c(Cl)sc(Cl)c21` (stereo not given), the TGI in [1] was 2.15 µM; in assay [2], greater than 100 µM; in assay [3], 4.91 µM; in assay [11] it was 23.4 µM; in assay [12], 9.79 µM; in assay [4], 30.3 µM. The TGI in assay [5] was determined as 39.1 µM; in [6], 28.6 µM; in assay [7] it was 15 µM; in [8], 24.6 µM; in assay [10], 15.7 µM.
For `COC(=O)[C@@H]1c2cc3c(c(O)c2[C@@H](OC)C[C@@]1(C)O)C(=O)c1c(O)cc2c(c1C3=O)OC1O[C@@]2(C)[C@H](O)[C@@H](N(C)C)[C@@H]1O`, the TGI in assay [1] is greater than 150 µM; in [2] it was 7.48 µM; in assay [3] it was 1.37 µM; in [12], 0.749 µM; in assay [5], 1.49 µM; in assay [6], 1.98 µM. The TGI in assay [7] came out at 1.21 µM; in [9], 0.877 µM; in assay [10] it was 3.12 µM.
Consider `C=C(C)C1Cc2c(cc(O)c3c(=O)c4ccccc4n(C)c23)O1` (stereo not given), for which the TGI was greater than 100 µM in assay [1]; 33.9 µM in assay [3]; 56.7 µM in assay [12]; greater than 100 µM in assay [4]; greater than 100 µM in assay [5]; greater than 100 µM in assay [6]. In addition, the TGI in [7], in assay [8] and in assay [9] was greater than 100 µM in each case.
As to `CN1CCN(CC(=O)Nc2ccc3ncnc(Nc4ccc(Oc5cccc(C(F)(F)F)c5)c(Cl)c4)c3c2)CC1`, the GI50 in assay [2] is 1.6 µM; in assay [3], 1.41 µM; in assay [11] it was 1.69 µM; in assay [12], 1.24 µM; in assay [4] it was 1.71 µM; in assay [7], 1.93 µM. For the same compound, the GI50 in assay [8] is 1.12 µM; in assay [10], 1.2 µM. In addition, the TGI in assay [2] was 2.99 µM; in assay [3], 2.89 µM; in assay [11], 3.26 µM; in [12], 2.49 µM; in assay [4] it was 3.16 µM; in assay [7], 3.79 µM. The TGI was found to be 2.33 µM in assay [8] and 2.46 µM in assay [10].
On to `Cc1cc2c(cc1O)CC[C@@H]1[C@@H]2CC[C@]2(C)[C@@H](O)CC[C@@H]12`, for which the TGI was 27.4 µM in assay [1]; 19.8 µM in assay [2]; 37.7 µM in [11]; 59.6 µM in assay [12]; 27.3 µM in assay [4]; 35 µM in [5]. In addition, the TGI in assay [6] was found to be 32.5 µM; in assay [7], 42.5 µM; in assay [8], 51.9 µM; in assay [10], 37.6 µM. Further, the GI50 in [2] was 7.46 µM.
`COc1ccc(CNc2nc(NCc3ccc(OC)cc3)nc(Nc3ccccc3)n2)cc1`: the TGI in assay [2] was greater than 100 µM; in assay [3], greater than 100 µM; in assay [11], greater than 100 µM; in [12], 10.4 µM; in assay [4], greater than 100 µM; in assay [5], 78.5 µM. Moreover, the TGI in assay [6], in assay [7], in assay [8], in assay [9] and in assay [10] was greater than 100 µM each time.
For `O=c1ccc2ccccc2o1`, the TGI in assay [1], in [2], in [3], in [4], in assay [5] and in assay [6] was greater than 100 µM throughout. Moreover, the TGI in [7], in assay [8], in assay [9] and in assay [10] was greater than 100 µM each time.
Consider `Cc1nc2c(nc1C)-c1c(c3c(n1Cc1ccccc1)C(=O)CCC3)C(=O)C2=O`, for which the TGI is greater than 100 µM in assay [1]; 29.4 µM in [11]; 5.32 µM in assay [12]; 4.18 µM in assay [4]; greater than 100 µM in assay [5]; greater than 100 µM in assay [6]. For the same compound, the results for the TGI in assay [7], in assay [9] and in assay [10] were 48.3 µM, 48.4 µM and 4.07 µM, respectively.
On to `C=CC1OC(CCCOC(=O)C(C)(C)C)O[C@@H]1CC` (stereo not given in full), for which the TGI in assay [1], in assay [2], in assay [11], in assay [12], in [4] and in assay [5] was greater than 100 µM each time. Also, the TGI in [6], in assay [7], in assay [8], in assay [9] and in assay [10] was greater than 100 µM in each case.
Regarding `[Cl-].[Rh+3].c1ccc(-c2ccnc3c2ccc2c(-c4ccccc4)ccnc23)cc1.c1ccc(-c2ccnc3c2ccc2c(-c4ccccc4)ccnc23)cc1.c1ccc(-c2ccnc3c2ccc2c(-c4ccccc4)ccnc23)cc1`, the TGI in [1] was greater than 100 µM; in assay [2], greater than 76 µM; in assay [3] it was greater than 100 µM; in assay [12], greater than 100 µM; in assay [4], greater than 100 µM; in assay [5], greater than 100 µM. In addition, the TGI was 43.3 µM in assay [6], greater than 100 µM in assay [7], greater than 100 µM in assay [9] and greater than 100 µM in assay [10]. In addition, the GI50 in assay [12] is 60.5 µM.
On to `Nc1nc2c(ncn2CCOC(c2ccccc2)P(=O)(O)O)c(=O)[nH]1` (stereo not given), for which the TGI in [2], in [3], in [12], in assay [4], in [5] and in assay [6] was greater than 100 µM in each case. Besides, the TGI in assay [7], in assay [8], in [9] and in [10] was greater than 100 µM in each case.
Turning to `C/C(Cl)=N\OC(=O)Nc1ccccc1C(F)(F)F`, the TGI in assay [1] was 53 µM; in [2] it was greater than 100 µM; in assay [11] it was greater than 100 µM; in assay [12], greater than 100 µM; in assay [4] it was 42.3 µM; in [5], greater than 100 µM. Besides, the TGI in [6] is 43.6 µM; in [7] it was greater than 100 µM; in [8], 35.2 µM; in [10], greater than 100 µM.
As to `C=C(C)CCC1CCCCC(CN(C)C)C1=O` (stereo not given), the TGI in [1], in assay [2], in assay [11], in [12], in assay [4] and in [5] was greater than 100 µM each time. Besides, the TGI in assay [6], in [7], in [8], in assay [9] and in assay [10] was greater than 100 µM in each case.
For `CN(C)CCNCc1c2ccccc2c(CNCCN(C)C)c2ccccc12`, the TGI in assay [1] is 88.8 µM; in assay [2], greater than 73.6 µM; in assay [3], 62.7 µM; in assay [4] it was greater than 100 µM; in assay [5] it was greater than 100 µM; in [6], 22.3 µM. Moreover, the TGI is 32.5 µM in assay [7], 47 µM in assay [9] and greater than 100 µM in assay [10].
Turning to `O=c1nc2n(cc1/C=C\Br)C1CC(O)C(CO2)O1` (stereo not given), the TGI in [1] is greater than 100 µM; in assay [2], greater than 100 µM; in assay [3], 57 µM; in assay [12], greater than 100 µM; in assay [4], greater than 100 µM; in assay [5] it was greater than 100 µM. The TGI in [6], in assay [7], in assay [8], in assay [9] and in assay [10] was greater than 100 µM throughout.
As to `CO/N=C1\CCC2(O)C3Cc4ccc(O)c5c4C2(CCN3CC2CC2)[C@H]1O5` (stereo not given in full), the TGI in assay [1], in assay [2], in assay [11], in [12], in assay [4] and in assay [5] was greater than 100 µM throughout. Also, the TGI in assay [6], in assay [8], in assay [9] and in [10] was greater than 100 µM in each case.
Regarding `COc1ccc(C(=O)N2CCN(c3ccc4c(c3)OCC(=O)N4)CC2)cc1`, the TGI in assay [1], in assay [2], in assay [11], in assay [12], in assay [4] and in [5] was greater than 100 µM each time. Further, the TGI in assay [6], in assay [7], in [8], in [9] and in assay [10] was greater than 100 µM each time.
With `CC1=C/C(=N/N2C(=O)/C(=C/c3ccc(Cl)cc3)N=C2c2ccccc2)CC(C)(C)C1`, the TGI in assay [2], in [3], in [11], in [12], in [4] and in [5] was greater than 100 µM throughout. For the same compound, the TGI in assay [6], in [7], in assay [8], in assay [9] and in assay [10] was greater than 100 µM throughout.
Consider `O=C(O)Cc1ccc(N2N=C(c3ccccc3)CC2=O)cc1`, for which the TGI in [1], in [11], in [12], in [4], in assay [5] and in [6] was greater than 100 µM throughout. In addition, the TGI in assay [7], in assay [8], in assay [9] and in assay [10] was greater than 100 µM each time.
Turning to `CC(SC(=S)N1CCCCC1)C(=O)Nc1nnc(-c2ccc(Cl)cc2)o1` (stereo not given), the TGI is greater than 100 µM in assay [2]; greater than 100 µM in assay [3]; 82.9 µM in assay [11]; greater than 100 µM in assay [4]; greater than 100 µM in [5]; greater than 100 µM in assay [6]. Moreover, the TGI in [7] is greater than 100 µM; in assay [8] it was greater than 100 µM; in [9] it was greater than 100 µM; in assay [10] it was 54 µM.
As to `COc1ccc(/C(Cl)=C(\C=O)c2ccc(F)cc2)cc1`, the TGI in assay [1] was 18.7 µM; in [2] it was 50.2 µM; in assay [12], 41 µM; in assay [4], greater than 100 µM; in assay [5], 72.9 µM; in [6], 31.9 µM. Moreover, the TGI was determined as 35.6 µM in assay [8], 67.9 µM in assay [9] and 42.2 µM in assay [10].
Consider `O=C(CSc1nnc(Cc2ccccc2)o1)Nc1ccc(Cl)cc1`, for which the TGI in [1], in [2], in [3], in assay [12], in assay [4] and in assay [5] was greater than 100 µM each time. For the same compound, the TGI in assay [6], in assay [7], in assay [8], in assay [9] and in assay [10] was greater than 100 µM each time.
In the case of `CCOC(=O)c1c(C)n(Cc2ccccc2)c2c1cc(O)c1[nH]c3c(c12)CCCC3`, the TGI in assay [1] was 7.4 µM; in assay [2] it was 5.54 µM; in assay [11] it was 9.92 µM; in assay [12] it was 24.5 µM; in assay [4], 18.7 µM; in [5], 29.9 µM. The TGI turned out to be 18.9 µM in assay [6], 52.4 µM in assay [7], 23.9 µM in assay [8] and 6.43 µM in assay [10].
In the case of `O=[N+]([O-])c1ccc(/C=C/c2ccc(N=Nc3ccc(/C=C/c4ccc([N+](=O)[O-])cc4S(=O)(=O)O)c(S(=O)(=O)O)c3)cc2S(=O)(=O)O)c(S(=O)(=O)O)c1`, the TGI in assay [1], in [2], in assay [3], in assay [4], in [5] and in [6] was greater than 100 µM in each case. Further, the TGI in [7], in assay [9] and in assay [10] was greater than 100 µM each time.
